Results taken from publication PMC6225228, “Design, Synthesis and Evaluation of N-pyrazinylbenzamides as Potential Antimycobacterial Agents” (Molecules : A Journal of Synthetic Chemistry and Natural …, 2018).
Values after ≈ are worked out from the molar mass of the structure shown. Where two headings read alike, the source gives them in different places.

Key:
Candida glabrata 20/I = experiment: Antifungal microdilution broth, CG; type: cell-based; settings: read-out: MIC CG
[1] = system: Lichtheimia corymbifera 272; experiment: Antifungal microdilution broth, LC; type: cell-based; settings: read-out: MIC LC
Candida tropicalis 156 = experiment: Antifungal microdilution broth, CT; type: cell-based; settings: read-out: MIC CT
[2] = system: Candida albicans ATCC 44859; experiment: Antifungal microdilution broth, CA; type: cell-based; settings: read-out: MIC CA
[3] = system: eight fungal strains of clinical importance; experiment: Antifungal microdilution, all tested fungal strains; type: cell-based
Trichosporon asahii 1188 = experiment: Antifungal microdilution broth, TA; type: cell-based; settings: read-out: MIC TA
Candida krusei E28 = experiment: Antifungal microdilution broth, CK; type: cell-based; settings: read-out: MIC CK
[4] = system: Trichophyton interdigitale 445; experiment: Antifungal microdilution broth, TI; type: cell-based; settings: read-out: MIC TI
[5] = system: Aspergillus fumigatus 231; experiment: Antifungal microdilution broth, AF; type: cell-based; settings: read-out: MIC AF
[6] = system: Mycobacterium smegmatis CCM 4622 (ATCC 607); experiment: Antimycobacterial microdilution, M. smegmatis; type: cell-based; settings: Mycolicibacterium smegmatis, read-out: M. smeg. ATCC 607 MIC
[7] = system: M. kansasii CNCTC My 235/80 (ATCC 12478); experiment: Antimycobacterial microdilution MABA, M. kansasii; type: cell-based, Mycobacterium kansasii; settings: for MIC: Mycobacterium kansasii, ATCC12478, pH 6.6, read-out: M. kans. ATCC 12478 MIC, Middlebrook 7H9 with OADC, pH 6.6, MABA
[8] = human, HepG2 cells
[9] = system: Mycobacterium tuberculosis H37Rv CNCTC My 331/88 (ATCC 27294); experiment: Antimycobacterial microdilution MABA, M. tuberculosis; type: cell-based; settings: for Mtb H37Rv ATCC 27294 MIC: Middlebrook 7H9 with OADC growth supplement, pH = 6.6, MABA; for MIC: Mycobacterium tuberculosis
[10] = system: Staphylococcus epidermidis H 6966/08; experiment: Antibacterial microdilution broth, SE; type: cell-based; settings: read-out: MIC SE
[11] = system: Escherichia coli CCM 4517; experiment: Antibacterial microdilution broth, EC; type: cell-based; settings: Escherichia coli, read-out: MIC EC
[12] = system: Pseudomonas aeruginosa CCM 1961; experiment: Antibacterial microdilution broth, PA; type: cell-based; settings: Pseudomonas aeruginosa, read-out: MIC PA
[13] = system: Staphylococcus aureus CCM 4516/08; experiment: Antibacterial microdilution broth, SA; type: cell-based
[14] = Confirmatory prolonged HepG2 cytotoxicity, CellTox Green Cytotoxicity Assay; settings: human, HepG2 cells
[15] = system: M. avium ssp. avium CNCTC My 80/72 (ATCC 15769); experiment: Antimycobacterial microdilution MABA, M. avium; type: cell-based, Mycobacterium avium; settings: for MIC: Mycobacterium avium, ATCC15769, pH 6.6, read-out: M. avium ATCC 15769 MIC
[16] = system: Enterococcus sp. J 14365/08; experiment: Antibacterial microdilution broth, EF; type: cell-based; settings: Enterococcus, read-out: MIC EF
[17] = system: Staphylococcus aureus H 5996/08 methicillin resistant; experiment: microbe, parasite or virus in culture; type: cell-based; settings: for MIC: Staphylococcus aureus, MRSA, read-out: MIC MRSA
[18] = Nakaseomyces glabratus, 20/I, 24 h
[19] = Nakaseomyces glabratus, 20/I, 48 h
[20] = Middlebrook 7H9 with OADC, pH 6.6, MABA
[21] = Lichtheimia corymbifera, 272, 24 h
[22] = Lichtheimia corymbifera, 272, 48 h
[23] = read-out: Mtb H37Rv ATCC 27294 MIC, Middlebrook 7H9 with OADC growth supplement, pH = 6.6, MABA
[24] = Candida albicans, ATCC44859, 24 h
[25] = Candida albicans, ATCC44859, 48 h
[26] = Staphylococcus epidermidis, H6966/08, 24 h
[27] = Staphylococcus epidermidis, H6966/08, 48 h
[28] = Trichosporon asahii, 1188, 24 h
[29] = Trichosporon asahii, 1188, 48 h
[30] = Trichophyton interdigitale, 445, 72 h
[31] = Trichophyton interdigitale, 445, 120 h
[32] = Staphylococcus aureus, CCM4516, 24 h, read-out: MIC SA, 24 h
[33] = Staphylococcus aureus, CCM4516, 48 h, read-out: MIC SA, 48 h
[34] = Aspergillus fumigatus, 231, 24 h
[35] = Aspergillus fumigatus, 231, 48 h

C[C@@H]1[C@H](O)[C@@H](C)/C=C/C=C/CC/C=C/C=C/C=C/C=C/C(O[C@H]2O[C@H](C)[C@@H](O)[C@H](N)[C@@H]2O)CC2O[C@](O)(CC(O)C(O)CCC(O)CC(O)CC(O)CC(=O)O[C@H]1C)CC(O)C2C(=O)O (stereo partly drawn) [NYS, nystatin, reference compound]
MIC (Candida glabrata 20/I; 24 h): 1.95 µM (≈ 1.81 µg/mL) | MIC (Candida glabrata 20/I; 48 h): 3.9 µM (≈ 3.61 µg/mL) | MIC ([1]; 24 h): 15.62 µM (≈ 14.5 µg/mL) | MIC ([1]; 48 h): 31.25 µM (≈ 28.9 µg/mL) | MIC (Candida tropicalis 156; 24 h): 1.95 µM (≈ 1.81 µg/mL) | MIC (Candida tropicalis 156; 48 h): 3.9 µM (≈ 3.61 µg/mL) | MIC ([2]; 24 h): 0.98 µM (≈ 0.908 µg/mL) | MIC ([2]; 48 h): 1.95 µM (≈ 1.81 µg/mL) | MIC, all tested fungal strains ([3]; read after 24 h (Trichophyton interdigitale 72 h)): 0.98 to 15.62 µM | MIC (Trichosporon asahii 1188; 24 h): 1.95 µM (≈ 1.81 µg/mL) | MIC (Trichosporon asahii 1188; 48 h): 1.95 µM (≈ 1.81 µg/mL) | MIC (Candida krusei E28; 24 h): 1.95 µM (≈ 1.81 µg/mL) | MIC (Candida krusei E28; 48 h): 3.9 µM (≈ 3.61 µg/mL) | MIC ([4]; 72 h): 3.9 µM (≈ 3.61 µg/mL) | MIC ([4]; 120 h): 7.81 µM (≈ 7.23 µg/mL) | MIC ([5]; 24 h): 1.95 µM (≈ 1.81 µg/mL) | MIC ([5]; 48 h): 3.9 µM (≈ 3.61 µg/mL)

CCc1ccc(C(=O)Nc2cnc(Cl)cn2)cc1 [Compound 2i]
MIC (Candida glabrata 20/I; [18]): > 125 µM | MIC (Candida glabrata 20/I; [19]): > 125 µM | MIC [6]: ≥ 500 µg/mL | M. kans. ATCC 12478 MIC [7, 20]: >100 µg/mL | MIC [7]: > 100 µg/mL | MIC [1, 21]: > 125 µM | MIC [1, 22]: > 125 µM | IC50 at 24 h [8]: > 250 µM | MIC (Candida tropicalis 156; Candida tropicalis, 156, 24 h): > 125 µM | MIC (Candida tropicalis 156; Candida tropicalis, 156, 48 h): > 125 µM | Mtb H37Rv ATCC 27294 MIC [9]: 3.13 µg/mL | MIC [9, 23]: 3.13 to 6.25 µg/mL | MIC ([9]; read-out: Mtb MIC, molar concentration): 12 µM | MIC [2, 24]: > 125 µM | MIC [2, 25]: > 125 µM | MIC [10, 26]: > 125 µM | MIC [10, 27]: > 125 µM | MIC ([11]; CCM4517, 24 h): > 125 µM | MIC ([11]; CCM4517, 48 h): > 125 µM | MIC ([12]; CCM1961, 72 h): > 125 µM | MIC ([12]; CCM1961, 120 h): > 125 µM | MIC (Trichosporon asahii 1188; [28]): > 125 µM | MIC (Trichosporon asahii 1188; [29]): > 125 µM | MIC (Candida krusei E28; Pichia kudriavzevii, E28, 24 h): > 125 µM | MIC (Candida krusei E28; Pichia kudriavzevii, E28, 48 h): > 125 µM | MIC [4, 30]: > 125 µM | MIC [4, 31]: > 125 µM | MIC ([13]; 24 h, read-out: MIC SA): >125 µM | MIC [13, 32]: > 125 µM | MIC [13, 33]: > 125 µM | MIC [5, 34]: > 125 µM | MIC [5, 35]: > 125 µM | IC50 at 24 h [14]: 264 µM | IC50 at 48 h [14]: 250 µM | M. avium ATCC 15769 MIC [15, 20]: >100 µg/mL | MIC [15]: > 100 µg/mL | MIC ([16]; SP.J14365/08, 24 h): > 125 µM | MIC ([16]; SP.J14365/08, 48 h): > 125 µM | MIC ([17]; 24 h): > 125 µM | MIC ([17]; 48 h): > 125 µM

O=C(Nc1cnc(Cl)cn1)c1cccc(O)c1 [Compound 2c]
MIC (Candida glabrata 20/I; [18]): > 500 µM | MIC (Candida glabrata 20/I; [19]): > 500 µM | MIC [6]: ≥ 500 µg/mL | MIC [7]: > 100 µg/mL | MIC [1, 21]: > 500 µM | MIC [1, 22]: > 500 µM | MIC (Candida tropicalis 156; Candida tropicalis, 156, 24 h): > 500 µM | MIC (Candida tropicalis 156; Candida tropicalis, 156, 48 h): > 500 µM | Mtb H37Rv ATCC 27294 MIC [9]: >100 µg/mL | MIC [9, 23]: > 100 µg/mL | MIC [2, 24]: 500 µM (≈ 125 µg/mL) | MIC [2, 25]: > 500 µM | MIC ([3]; Trichophyton interdigitale, read-out: MIC, all tested fungal strains): ≥ 500 µM | MIC ([10]; 24 h): >500 µM | MIC ([10]; 48 h): >500 µM | MIC [10, 26]: > 500 µM | MIC [10, 27]: > 500 µM | MIC ([11]; CCM4517, 24 h): > 500 µM | MIC ([11]; CCM4517, 48 h): > 500 µM | MIC ([12]; CCM1961, 72 h): > 500 µM | MIC ([12]; CCM1961, 120 h): > 500 µM | MIC (Trichosporon asahii 1188; [28]): > 500 µM | MIC (Trichosporon asahii 1188; [29]): > 500 µM | MIC (Candida krusei E28; Pichia kudriavzevii, E28, 24 h): > 500 µM | MIC (Candida krusei E28; Pichia kudriavzevii, E28, 48 h): > 500 µM | MIC [4, 30]: > 500 µM | MIC [4, 31]: > 500 µM | melting point: 190.1 to 190.8 °C | MIC [13, 32]: 500 µM (≈ 125 µg/mL) | MIC [13, 33]: 500 µM (≈ 125 µg/mL) | MIC [5, 34]: > 500 µM | MIC [5, 35]: > 500 µM | MIC [15]: > 100 µg/mL | MIC ([16]; SP.J14365/08, 24 h): > 500 µM | MIC ([16]; SP.J14365/08, 48 h): > 500 µM | MIC MRSA ([17]; 24 h): >500 µM | MIC MRSA ([17]; 48 h): >500 µM | MIC ([17]; 24 h): > 500 µM | MIC ([17]; 48 h): > 500 µM
